We go through 13 molecules from patent US20130273183A1, “2-Pyrimidine Thioesters and Thiocarbonates as Skin Brightening Agents” (EASTMAN CHEMICAL COMPANY, priority 2012, published 2013).

Each structure is given as a SMILES string. Marks after values point to notes of the source that are not given here.

The subject of data set [1] is B16-F10 murine melanoma cells. Put plainly: Melanogenesis inhibition assay (melanin content, absorbance at 450 nm). The class given is cell-based. The conditions noted are these: Mus musculus, 72 h, read-out: Melanogenesis % of control; for activity at 100 µM: 0.1 mmol/L; for activity at 1000 µM: 1.0 mmol/L; for activity at 500 µM: 0.5 mmol/L (footnote *). The method, then:
Melanocytes (B16-F10/CRL-6475 murine melanoma cells, purchased from ATCC) were cultured in Dulbecco's Modified Eagle's Medium (DMEM)/Ham's F-12 50:50 mix with L-glutamine w/out phenol red/10% (v/v) newborn calf serum/1% (v/v) 100× Invitrogen Cat #15240-062 Antibiotic-Antimycotic at 37° C. (i.e., the growth medium) in a humidified atmosphere with 5% CO2. The cells were seeded into 12.5 cm^2 tissue culture flasks at a concentration of 1.0×10^5 cells/mL. A 3-mL cell suspension (seed medium) was added to each flask. The test compounds were dissolved in dimethyl sulfoxide (DMSO) at a concentration of 0.5 M. This 0.5 M stock was used to prepare various concentrations of the test compounds in growth medium, with the final concentration of DMSO at 0.2% by weight. Growth medium with diluted test compound is referred to as the dose medium. The controls were treated in the same manner, but without the test compound. After 24 hrs of incubation, the seed medium was replaced with 3 mL of dose medium (growth medium with various concentrations of test samples or control compounds). The dose medium was […] day, and the incubation continued for an additional 2 days. The dose medium was removed. The cells were dissolved in 1 mL of 1 N NaOH during incubation at 80° C. for 10 min. Samples of extracted melanin were transferred to a 96-well plate, and the absorbance was read at 450 nm. Each experiment was repeated three times. Kojic acid, arbutin, and hydroquinone were used as positive controls.

For data set [2], the system named is B16-F10 murine melanoma cells. Put plainly: Cell viability assay (MTT). In kind it is cell-based. As for the experimental part: After incubating the melanocytes with test samples or control compounds as mentioned above, 330 μL of a MTT solution (5 mg/mL MTT in standard medium with no added serum or antibiotic) was added. […] After orbital shaking for 10 min at room temperature, 1 mL of the contents of each flask was transferred to microfuge tubes and centrifuged for 10 min. 200 μL of each tube were then transferred to a 96-well plate, and the relative extent of MTT reduction was determined based on the absorbance at 590 nm. […] Kojic acid, arbutin, and hydroquinone were used as positive controls.

[3] abbreviates: 0.5 mmol/L (footnote *), MTT, B16-F10 cells.

Regarding `O=c1cc(CO)occ1O` [Kojic acid, reference compound], in data set [1], the activity at 100 µM came out at 94% and the activity at 1000 µM came to 86%. The “Cell Viability % of control” value in data set [2] (mouse, 0.1 mmol/L) was 116 % of control. For the same molecule, the “Cell Viability % of control” value in data set [2] (mouse, 1 mmol/L) is on record as 92 % of control.

As for `O=C(Sc1ncccn1)c1ccccc1` [Example 6, Pyrimidin-2-yl Thiolbenzoate], the activity at 100 µM in data set [1] was 69%. In addition, the activity at 1000 µM in data set [1] is 39%. Besides, the “Cell Viability % of control” value in data set [2] (0.1 mmol/L, MTT, B16-F10 cells) is reported as 91 % of control; in data set [2] (1.0 mmol/L, MTT, B16-F10 cells) it was 69 % of control.

In the case of `O=C(Sc1ncccn1)c1cccnc1` [Example 7, S-Pyrimidin-2′-yl Pyridine-3-carbothioate], in data set [1], the activity at 100 µM was 72% and the activity at 1000 µM is 27%. In addition, in data set [2] (0.1 mmol/L, MTT, B16-F10 cells), the “Cell Viability % of control” value is 101 % of control. Further, in data set [2] (1.0 mmol/L, MTT, B16-F10 cells), the “Cell Viability % of control” value is 3.5 % of control.

With `OC[C@H]1O[C@@H](Oc2ccc(O)cc2)[C@H](O)[C@@H](O)[C@@H]1O` [Arbutin, arbutin, reference compound], in data set [1], the activity at 100 µM is 92% and the activity at 1000 µM came out at 83%. Moreover, the “Cell Viability % of control” value in data set [2] (0.1 mmol/L, MTT, B16-F10 cells) is given as 125 % of control. Also, in data set [2] (1.0 mmol/L, MTT, B16-F10 cells), the “Cell Viability % of control” value is given as 134 % of control.

Take `CCC(=O)Sc1ncccn1` [Example 2, Pyrimidin-2-yl Thiolpropionate]: in data set [1], the activity at 100 µM was determined as 67% and the activity at 1000 µM was determined as 36%. Further, the “Cell Viability % of control” value in data set [2] (0.1 mmol/L, MTT, B16-F10 cells) was 113 % of control. Also, in data set [2] (1.0 mmol/L, MTT, B16-F10 cells), the “Cell Viability % of control” value is 13.6 % of control.

Turning to `COC(=O)CSc1ncccn1` [Comparative Example 1, Methyl 2-(pyrimidin-2′-ylthio)acetate, reference compound], in data set [1], the activity at 100 µM stood at 115% and the activity at 1000 µM worked out at 98%. Further, the “Cell Viability % of control” value in data set [2] (0.1 mmol/L, MTT, B16-F10 cells) is on record as 114 % of control. In data set [2] (1.0 mmol/L, MTT, B16-F10 cells), the “Cell Viability % of control” value was 117 % of control.

On to `CC(C)(C)C(=O)Sc1ncccn1` [Example 5, Pyrimidin-2′-yl 2,2-Dimethylpropanethioate], for which, in data set [1], the activity at 100 µM came out at 66%. For the same molecule, in data set [1], the activity at 1000 µM turned out to be 28%. The “Cell Viability % of control” value in data set [2] (0.1 mmol/L, MTT, B16-F10 cells) is recorded as 91 % of control; in data set [2] (1.0 mmol/L, MTT, B16-F10 cells), 7 % of control.

As to `CCOC(=O)Sc1ncccn1` [Example 3, O-Ethyl-5-pyrimidin-2-yl Monothiolcarbonate], in data set [1], the activity at 100 µM came out at 81% and the activity at 1000 µM amounted to 36%. Also, the “Cell Viability % of control” value in data set [2] (0.1 mmol/L, MTT, B16-F10 cells) is reported as 87 % of control. Moreover, the “Cell Viability % of control” value in data set [2] (1.0 mmol/L, MTT, B16-F10 cells) is recorded as 32 % of control.

Regarding `COC(=O)CCSc1ncccn1` [Comparative Example 2, Methyl 3-(Pyrimidin-2′-ylthio)propionate, reference compound], in data set [1], the activity at 100 µM was determined as 98%. Besides, the activity at 500 µM in data set [1] was found to be 96%. Moreover, the “Cell Viability % of control” value is 88 % of control in data set [2] (0.1 mmol/L, MTT, B16-F10 cells) and 84* % of control in data set [2] (setting [3]).

With `O=C(Sc1ncccn1)c1ccncc1` [Example 8, S-Pyrimidin-2′-yl Pyridine-4-carbothioate], in data set [1], the activity at 100 µM stood at 70% and the activity at 500 µM worked out at 38%. In addition, the “Cell Viability % of control” value in data set [2] (0.1 mmol/L, MTT, B16-F10 cells) was 92 % of control. Besides, the “Cell Viability % of control” value in data set [2] (setting [3]) is reported as 36* % of control.

Take `Oc1ccc(O)cc1` [Hydroquinone, hydroquinone, reference compound]: in data set [1], the activity at 500 µM turned out to be 33%. In data set [2] (mouse, 0.5 mmol/L), the “Cell Viability % of control” value is recorded as 3* % of control.

Take `CC(=O)Sc1ncccn1` [Example 1, Pyrimidin-2-yl Thiolacetate]: in data set [1], the activity at 100 µM is 71% and the activity at 1000 µM came to 33%. Besides, in data set [2] (0.1 mmol/L, MTT, B16-F10 cells), the “Cell Viability % of control” value was 100 % of control. In addition, the “Cell Viability % of control” value in data set [2] (1.0 mmol/L, MTT, B16-F10 cells) is reported as 6.6 % of control.

In the case of `Sc1ncccn1` [2-Mercapto-Pyrimidine, 2-Mercaptopyrimidine, reference compound], the activity at 250 µM in data set [1] (0.25 mmol/L) is 42%. Besides, the activity at 500 µM in data set [1] is 35%. Besides, the “Cell Viability % of control” value in data set [2] (0.25 mmol/L, MTT, B16-F10 cells, no replication) is reported as 81** % of control; in data set [2] (setting [3]), 68* % of control.
